Entries after “also recorded” stand apart in the source; their conditions may differ.

In experiment [1] the target is T1, human IL-36γ (Homo sapiens, UniProt Q9NZH8).
T1 construct: His6-SUMO-human IL-36γ (18–169); His6-SUMO (N, cleaved yes); made in house; host or cells: E. coli BL21 (DE3)
T1 sequence (Q9NZH8 18-169): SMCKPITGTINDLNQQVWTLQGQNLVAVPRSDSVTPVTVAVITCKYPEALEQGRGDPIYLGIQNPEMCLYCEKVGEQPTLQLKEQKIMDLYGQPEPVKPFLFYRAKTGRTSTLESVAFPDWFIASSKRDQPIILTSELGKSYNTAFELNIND
Description: Isothermal titration calorimetry. Format: binding. Conditions: 25 °C, pH 7.5; read-out: KD (ITC). The procedure: All experiments were carried out on a MicroCal^TM Auto-ITC200 at 25 °C in 50 mM HEPES (pH = 7.5), 150 mM NaCl, 0.5 mM TCEP, 2% DMSO. IL-36γ protein solution was buffer exchanged by gel filtration into the isothermal titration calorimetry (ITC) buffer and diluted to 40 µM. The titrations were conducted using an initial injection of 0.2 µL followed by 19 identical injections of 2 µL of 400 µM compound solution. Thermodynamic parameters were calculated using ∆G = ∆H − T∆S = −RTlnKB, where ∆G, ∆H and ∆S are the changes in free energy, enthalpy and entropy of binding respectively. A single binding site model was employed.
In general terms: ITC needs no label: the signal is the heat of the interaction.

The subject of experiment [2] is IL-36γ evoked CXCL1 release from Mouse NIH-3T3 cells. Description: IL-36γ evoked CXCL1 release, mouse NIH-3T3 cells. Format: cell-based. Conditions: for IC50: NIH-3T3 cells, n = 4, read-out: IC50 attenuation of CXCL1 release induced by human IL-36γ. How it is done:
(§1) The immortalized human keratinocyte cell line HaCaT and mouse fibroblast NIH-3T3 cell line were maintained in culture in DMEM with 10% fetal bovine serum and 1% penicillin/streptomycin added (Sigma). Cells were seeded in 96-well tissue culture plates (Corning) at 25,000 cells per well and allowed to adhere and recover overnight at 37 °C in an incubator. Cells were rinsed with PBS (Sigma) and treated with cytokines diluted in 200 μL/well of the medium (DMEM with 0.5% FBS and 1% penicillin/streptomycin) as indicated. In inhibition mode, the agonist concentration used was at the EC80 for chemokine production and the cells were pre-treated with inhibitors for 30 min prior to adding the agonist. After 24 h of treatment, supernatants were collected and IL-8 and CXCL1[28] levels were assessed using a custom immunoassay (Meso Scale Discovery). EC50/IC50 values were estimated from a four-parameter logistic fit using Prism software (GraphPad).

For experiment [3], the system named is human IL-36γ induced plasma CXCL1. The experiment can be described thus: hIL-36γ induced CXCL1 release in mouse plasma. The note with it: C57BL/6 mice, compounds 10, 30 and 100 mg/kg p.o.; antibody i.p. Format: in vivo. From the text: Female C57BL/6 mice (9–10 weeks old, 19–23 g) were purchased from Charles River Laboratories. All animal procedures were approved by AbbVie’s Institutional Animal Care and Use Committee (IACUC) and performed in accordance with the relevant IACUC guidelines and regulations. To examine engagement of human IL-36γ with antagonists under in vivo conditions, a mouse acute CXCL1 release assay was established which was similar to one previously reported. Plasma CXCL1 secretion was induced by subcutaneous injection of 2 μg human IL-36γ (in 100 μL PBS) into C57BL/6 mice. Blood was withdrawn via cardiac puncture 2 h after the challenge with IL-36γ. A-552 and A-553 were dosed at 10, 30 and 100 mg/kg p.o. 45 min before IL-36γ challenge. Anti-IL36R antibodies were dosed i.p. at 24 hours before IL-36γ challenge. Plasma CXCL1 levels were analyzed using MSD V-PLEX kit.

For another experiment, the target named is T2, human IL-36α (Homo sapiens, UniProt Q9UHA7).
T2 construct: using recombinant truncated proteins
T2 sequence (Q9UHA7 6-158): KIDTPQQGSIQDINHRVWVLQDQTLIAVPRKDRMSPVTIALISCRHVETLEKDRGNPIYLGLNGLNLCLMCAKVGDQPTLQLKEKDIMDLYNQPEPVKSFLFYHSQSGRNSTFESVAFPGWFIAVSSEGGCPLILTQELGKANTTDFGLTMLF
The experiment can be described thus: Thermal shift assay / affinity, human IL-36α. The class given is binding. Conditions: thermal shift assay at 100 μM (Supplementary Fig. 4). How it is done:
(§2) Thermal shift assays[30] were performed on a Roche LightCycler 480 instrument using Sypro Orange Dye (Invitrogen). Reactions consisted of 0.5–2 µM purified recombinant protein in PBS, pH 7.4, a 1/500 dilution of the stock Sypro Orange reagent, and 100 µM test compounds, resulting in a final DMSO concentration of 1%. The samples were heated from 20 °C to 95 °C at a rate of 0.25 °C per second.

Experiment [4] deals with human IL-36γ evoked CXCL1 release from Human HaCaT cells. The experiment can be described thus: human IL-36γ evoked CXCL1 release, human HaCaT cells. The class given is cell-based. The note with it: ± S.D. The procedure: as §1
Experiment [5] addresses T1, human IL-36γ. Description: Thermal shift assay, human IL-36γ. The class given is binding. The note with it: 100 μM compound; read-out: increase of melting temperature of human IL-36γ. How it is done:
as §2

Experiment [6] relates to IL-1β evoked IL-8 release from HaCaT cells. Description: IL-1β evoked IL-8 release assay in HaCaT cells. The class given is cell-based, human. The note with it: agonist mode, n = 3. How it is done: as §1
The IL-8 release assays were miniaturized for HTS hit follow-up. Frozen aliquots of HaCaT cells were thawed, added to complete media, mixed, spun down, resuspended in fresh media, and dispensed using the Multidrop384 into black, clear-bottom 384 well plates at a final density of 4000 cells/well. […] Cell viability was assessed using Cell Titer-Glo (Promega) according to the manufacturers’ instructions.

Experiment [7] deals with 3D human skin equivalents. The experiment can be described thus: IL-36γ induced 3D skin equivalent model. Conditions: 0.3 μg/mL hIL-36γ; 10 μM A-552, 10 μg/mL antibody or IL-36Ra; three days. Format: cell-based. How it is done:
Hematoxylin & eosin (H&E) staining and immunohistochemistry (IHC) were performed using a Leica ST5010 autostainer or Leica Bond RX automated immunostainer. Standardized IHC protocols were used for anti-loricrin staining (Abcam AB85679). Stained tissue slides were digitized for image analysis using a Perkin Elmer P250 whole slide digital pathology slide scanner with 20X objective and extended focus scanning parameters. For quantitative analysis, N = 3 raft samples were analyzed per condition for each stain using whole slide digital analysis software (Indica Labs HALO). Staining was normalized to the length of the raft sample analyzed.
3D skin equivalents (SOR-300-FT-CTR) comprised of human neonatal keratinocytes and fibroblasts were purchased from MatTek, equilibrated for one day in proprietary formulated media (SOR-300-FT-CTR-MM) and then treated as indicated. Treatment groups contained hIL-36γ at 300 ng/mL, 10 μM of A-552, 10 μg/mL anti-IL36R antibody, 10 μg/mL IL-36RA, or 10 μg/mL IgG isotype control either alone or in combination with hIL-36γ. Control skin equivalents were treated with media only. Skin equivalents were treated for three days, with media collected for cytokine release studies at day two and replaced with fresh treatment media. After three days the skin equivalents were either placed in 10% neutral buffered formalin solution (for histology) or frozen (for qRT-PCR).
To measure IL-6, IL-8 and CXCL1 release from 3D skin equivalents diluted sample media collected at day 2 of the treatment (see above) was used in conjunction with V-PLEX multiplex immunoassay for IL-6 and IL-8 and a U-PLEX immunoassay for CXCL1 (Meso Scale Discovery) according to the manufacturers’ protocols.
RNA from frozen 3D skin equivalents was isolated using miRNeasy Mini Kit (Qiagen) per the manufacturers’ instructions. For qRT-PCR determination a CFX384 Real-Time System C1000 Touch Thermocycler was used. […] Each transcript measured was presented as a fold change compared to control using the ∆∆CT method as RNA fold increase where RPLP0 was used as a housekeeping gene.

The target in experiment [8] is T3, human IL-36R/IL-1RAcP extracellular domain (ECD) knob-in-hole Fc (human, UniProt Q9HB29 20-335; Q9NPH3 21-367).
T3 construct: human IL-36 receptor subunit (IL-36R), extracellular domain; human IL-1RAcP co-receptor subunit, extracellular domain; Both proteins were engineered with an Fc 'knob-in-hole' to force heterodimerisation; also called hIL-36R/IL-1RAcP ECD knob-in-hole Fc; human IL-36R/IL-1RAcP ECD Fc heterodimer; not shown: His tag (from the nickel column and the Tb-anti-His detection)
T3 sequence (looked up) 1: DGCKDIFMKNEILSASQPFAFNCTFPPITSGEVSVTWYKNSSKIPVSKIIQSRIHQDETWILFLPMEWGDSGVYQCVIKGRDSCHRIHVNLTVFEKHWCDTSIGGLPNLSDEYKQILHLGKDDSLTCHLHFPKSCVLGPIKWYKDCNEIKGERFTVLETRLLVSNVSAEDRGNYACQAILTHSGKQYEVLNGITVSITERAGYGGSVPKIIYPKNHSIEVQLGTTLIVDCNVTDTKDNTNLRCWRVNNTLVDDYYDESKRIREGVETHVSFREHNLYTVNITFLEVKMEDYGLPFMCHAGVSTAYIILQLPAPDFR
T3 sequence (looked up) 2: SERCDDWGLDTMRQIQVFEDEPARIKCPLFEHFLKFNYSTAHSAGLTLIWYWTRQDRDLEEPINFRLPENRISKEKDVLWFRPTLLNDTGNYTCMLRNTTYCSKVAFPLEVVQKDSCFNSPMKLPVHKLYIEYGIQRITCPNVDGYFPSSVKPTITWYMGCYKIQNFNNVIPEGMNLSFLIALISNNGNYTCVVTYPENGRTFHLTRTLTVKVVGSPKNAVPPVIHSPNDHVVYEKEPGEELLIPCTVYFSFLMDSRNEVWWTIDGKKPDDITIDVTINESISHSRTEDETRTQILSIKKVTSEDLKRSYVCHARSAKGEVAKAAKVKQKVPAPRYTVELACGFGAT
Description: AlphaScreen or HTRF; TR-FRET, competitive mode: unlabeled human IL-36γ or IL-36Ra titrated against 6 nM Alexa 488 human IL-36γ, receptor heterodimer 1.5 μg/mL, 6 nM Tb-anti-His antibody; Ki by the Cheng-Prusoff equation. The note with it: both partners purified. (Bead proximity is the source of the signal in Alpha formats.)

A word on the Kd: it is the constant that tells how readily two partners part at equilibrium. The term Ki denotes the dissociation constant of the complex between target and ligand, obtained from inhibition or displacement. Lower therefore signals tighter binding. `COC(c1ccccc1)(c1ccccc1)[C@@H](Oc1nc(C)cc(-c2ccc(C)c(N)c2)n1)C(=O)O` [Compound A-553]: the Kd at human IL-36γ [1] amounted to 3000 ± 330 nM. Also, the Ki in experiment [2] (human IL-36γ evoked CXCL1 release, ± S.D.) turned out to be 3700 ± 1700 nM; in [4], 3700 ± 2300 nM. For the same molecule, in experiment [3], the “effect on hIL-36γ induced plasma CXCL1 release (in words)” value is “little effect; also recorded: no effect”. Besides, at human IL-36α, the “binding / affinity to human IL-36α” value was “do not bind”. Also, the ΔTm at 100 µM at human IL-36γ [5] turned out to be 1.3 °C.

As a reminder, the EC50 is the concentration that produces a half-maximal response. On to “IL-1β: human IL-1β cytokine used in the selectivity assay”, for which, in [6], the EC50 worked out at 0.0057 ± 0.0038 nM.

B1: mouse IL-36Ra: mouse IL-36 receptor antagonist protein (protein, UniProt Q9QYY1 2-156, looked up)
Interleukin-36 receptor …: MVLSGALCFRMKDSALKVLYLHNNQLLAGGLHAEKVIKGEEISVVPNRALDASLSPVILGVQGGSQCLSCGTEKGPILKLEPVNIMELYLGAKESKSFTFYRRDMGLTSSFESAAYPGWFLCTSPEADQPVRLTQIPEDPAWDAPITDFYFQQCD
Usually IC50 stands for the concentration needed to halve the response being measured. As to B1, in experiment [2], the IC50 was determined as 19 ± 9 nM.

B2: human IL-36Ra: recombinant soluble human IL-36 receptor antagonist (2–155) (protein)
chain: VLSGALCFRMKDSALKVLYLHNNQLLAGGLHAGKVIKGEEISVVPNRWLDASLSPVILGVQGGSQCLSCGVGQEPTLTLEPVNIMELYLGAKESKSFTFYRRDMGLTSSFESAAYPGWFLCTVPEADQPVRLTQLPENGGWNAPITDFYFQQCD
modifications: left off: His6, N-terminal, cleaved | SUMO, N-terminal, cleaved
As to B2, the “effect on hIL-36γ induced changes in morphology, gene expression and cytokine production” value in experiment [7] is “fully attenuated”. For the same molecule, the IC50 in [2] is 23 ± 10 nM.

B3: human IL-36γ (18–169) (ligand, UniProt Q9NZH8 18-169, looked up)
chain: T1 sequence (Q9NZH8 18-169)
notes: human IL-36γ, residues 18-169; also called hIL-36γ; unlabeled IL-36γ; source: E. coli BL21 (DE3), purified (nickel column, ULP1 cleavage, Superdex 75 gel filtration); not shown: His6, N-terminal, cleaved; SUMO, N-terminal, cleaved
With B3, in experiment [8], affinity was put at a Ki of 0.4 nM.

The values are drawn from PMC6591177, “Small Molecule IL-36γ Antagonist as a Novel Therapeutic Approach for Plaque Psoriasis” (Scientific Reports, 2019).
